# Laboratory results from patent US20200297671A1, “METHODS OF AVOIDING EXCIPIENT-BASED ADVERSE EFFECTS AND OF EXPLOITING BIOLOGICAL PROPERTIES OF GRAS COMPOUNDS” (MASSACHUSETTS INSTITUTE OF TECHNOLOGY, priority 2019, published 2020).
# Columns and labels:
# Human UGT2B7 = biological target: T1, Human UGT2B7 (Homo sapiens, UniProt P16662); test: UGT2B7 inhibition assay (Corning Supersomes, Biovision UGT activity kit); type: biochemical
# T1 construct: purchased Corning
# T1 sequence (P16662 24-529): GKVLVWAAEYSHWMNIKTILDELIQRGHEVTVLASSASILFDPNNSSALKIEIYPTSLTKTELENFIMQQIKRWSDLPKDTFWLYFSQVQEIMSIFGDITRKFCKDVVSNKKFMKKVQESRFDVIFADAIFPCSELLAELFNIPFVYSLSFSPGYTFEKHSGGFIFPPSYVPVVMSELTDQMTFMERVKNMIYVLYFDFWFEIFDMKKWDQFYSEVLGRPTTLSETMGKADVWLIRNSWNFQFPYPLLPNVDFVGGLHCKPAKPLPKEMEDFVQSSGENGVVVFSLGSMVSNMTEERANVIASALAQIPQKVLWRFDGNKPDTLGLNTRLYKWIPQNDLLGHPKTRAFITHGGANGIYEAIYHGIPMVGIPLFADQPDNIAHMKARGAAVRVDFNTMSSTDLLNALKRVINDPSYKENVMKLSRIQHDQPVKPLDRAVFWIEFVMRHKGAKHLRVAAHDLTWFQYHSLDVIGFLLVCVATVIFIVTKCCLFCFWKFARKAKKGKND
# Procedure: UGT2B7 inhibition was measured using Corning® Supersomes™ Human UGT2B7. The inhibition of UGT2B7 was measured using the commercially-available Biovision UGT activity screening kit as previously described. Briefly, 0.1 mg/mL microsomes were mixed with Alamethicin for pore-formation and a proprietary UGT ligand that loses fluorescence after glucuronidation (Biovision). Plates were incubated for 5 minutes at RT and protected from light before the enzymatic reaction was initiated through the addition of UDPGA. […] Diclofenac (1 mM in PBS 1% DMSO) served as a positive inhibitor control.
# UGT = UGT tissue assay (liver lysate); type: biochemical, porcine; conditions: pig liver lysate, 500 μM
# Procedure: Compound mixtures were prepared at 500 μM. Freshly extracted porcine liver was homogenized using a tissue homogenizer. The sample was separated using centrifugation and the supernatant was used as a test sample. Two independent experiments with two different liver extracts were performed as described for the microsomes.
# mice = conditions: cited from earlier work
# patients = conditions: cited from earlier work
# P-gp = P-gp in vivo experiment (warfarin plasma concentration); parameters: species or system BALB/c mice; conditions: mice
# Procedure: A suspension of vitamin A palmitate in 10% DMSO PBS or 10% DMSO PBS buffer control were administered orally to five female BALB/c mice at a dose of 500 mg/kg 15 minutes prior to treatment. Mice were then treated orally with warfarin 20 mg/kg. Blood was sampled after 30 minutes of oral warfarin administration. Warfarin plasma concentrations were determined using LCMS.
smiles,measurement,setting,value
CC(C)C1=CC2=CC[C@@H]3[C@](C)(CCC[C@@]3(C)C(=O)O)[C@H]2CC1 [abietic acid],inhibition of UGT2B7 activity in microsomes (FIG. 18),Human UGT2B7,can inhibit UGT2B7 activity
same,IC50,"Human UGT2B7; functional in vitro assay, microsomes, 30 minutes",2200 ± 300 nM
same,inhibition of UGT activity ex vivo,UGT,successfully inhibited UGT activity
same,toxicity in mice,mice,harmless in mice
OC[C@H]1O[C@@H](O[C@H]2[C@H](O)[C@@H](O)C(O)O[C@@H]2CO)[C@H](O)[C@@H](O)[C@H]1O (some centres unmarked) [lactose],amount affecting individuals,patients; severe cases of lactose intolerance,less than 200 mg
O=C([O-])C1=NN(c2ccc(S(=O)(=O)[O-])cc2)C(=O)C1N=Nc1ccc(S(=O)(=O)[O-])cc1.[Na+].[Na+].[Na+] (centres unmarked) [tartrazine],patients with adverse symptoms associated with tartrazine content,"patients; tartrazine-containing versus tartrazine-free medications, all patients",about 4%
CCCCCCCCCCCCCCCC(=O)OC/C=C(C)/C=C/C=C(C)/C=C/C1=C(C)CCCC1(C)C [vitamin A palmitate],systemic warfarin after oral delivery (FIG. 23),P-gp,induces an increase of systemic warfarin
same,increase of oral absorption of warfarin,"P-gp; 500 mg/kg oral 15 minutes before warfarin 20 mg/kg oral, blood after 30 minutes",31%
